The subject of series [1] is disseminated ovarian cancer model. Description: Disseminated ovarian cancer model, intraperitoneal dosing. Type of series: in vivo, mice. From the text:
In vivo, TRX-E-002-1, formulated in 20% SBECD, was active in a disseminated ovarian cancer model and a recurrent ovarian cancer model in which tumour recurrence is investigated following initial treatment of the OCSC2-inoculated mice with paclitaxel. In both models, TRX-E-002-1 inhibited tumour growth following once daily intraperitoneal administration.
The combination of TRX-E-002-1 and cisplatin was investigated in the murine model of disseminated ovarian cancer.

A short description of series [2]: Second dog pharmacokinetic study, 10 mg/kg intraperitoneal, four dogs. Format: in vivo, beagle dogs. The following applies: dog M + F, 10 mg/kg i.p., second study. On the procedure:
In beagle dogs, plasma concentrations of unconjugated TRX-E-002-1 at early time points (1–4 h’ post-dose) were 76–93% of the total levels (parent + glucuronide). At 8 h, the plasma concentrations of the glucuronide metabolites were similar to those of parent drug. By 24 h’ post-dose, the concentrations of TRX-E-002-1-glucuronide in plasma and gastrointestinal tissues (except colon) were 2–12 times higher than those of the parent drug. The increased levels of TRX-E-0021-glucuronide relative to those of parent drug at 24 h post-dose may reflect slower elimination of the glucuronide metabolites.

Series [3] in a line: Rat pharmacokinetics after single intraperitoneal injection of 100 mg/kg. Format: in vivo, Sprague–Dawley rats. As for the experimental part: The pharmacokinetics of TRX-E-002-1 was evaluated in male female Sprague–Dawley rats following a single intraperitoneal injection of 100 mg/kg TRX-E-002-1 in 20% SBECD vehicle. Absorption was rapid, with C max mean plasma concentrations reached 0.25/1 h after dosing in female/male rats. […] Mean plasma levels decreased to below the limit of quantification by 24 h (not shown). The AUC0−∞ value was 29,537 and 44,702 ng h/mL in female and male rats, respectively (Table 2). High tissue levels were observed 0.5–6 h after dosing, with levels higher than the plasma concentration in pancreas, ovaries, large intestine, skin, kidneys, liver, stomach and adrenal glands (not shown). Treatment of plasma and tissue samples with glucuronidase indicated the presence of low levels of a glucuronide conjugate of TRX-E-002-1 (not shown). Other metabolic pathways have not yet been investigated. […] Parent drug was excreted in the urine and faeces, and high levels of the glucuronide metabolite were found in the faeces.
Tissue concentrations of total drug (parent + glucuronide) were also similar to those in plasma except in liver, where they were 2–3 times higher.

Series [4] in a line: Dog 14-day pilot toxicity study with toxicokinetics, intraperitoneal. The following applies: dog M + F, Day 1.
Experimental: For the dog 14-day pilot study, male and female beagle dogs were dosed once daily with intraperitoneal injections of vehicle (1:2 dilutions of 20% SBECD in 0.9% saline) or Cantrixil (10, 30 or 100 mg/kg) for 14 days. The doses were administered via an implanted catheter.
The test system of series [5] is micronucleated polychromatic erythrocytes (PCEs) in bone marrow. In words: Bone marrow micronucleus test. Type of series: in vivo, ARC(S) Swiss mice. The note with it: positive control group. On the procedure:
The assays were performed in compliance with GLP regulations.
The bone marrow micronucleus test was the in vivo part of the ICH genotoxicity testing battery and was conducted in ARC(S) Swiss mice. Eight groups of mice (10/sex/group) were given an intraperitoneal injection of vehicle (20% w/v SBECD) or Cantrixil at 50, 200 or 400 mg/kg and were killed 24 or 48 h later. Dimethyl-1,2 benzanthracene was used as the positive control. After preparation of the bone marrow cells, the number of micronucleated polychromatic erythrocytes (PCEs) was determined in 4000 PCEs per animal, and the proportion of PCEs in the total erythrocyte population in bone marrow was calculated from the examination of at least 500 erythrocytes as an index of bone marrow toxicity. […] The proportion of PCEs in the total erythrocyte population was decreased in both sexes at the 200 and 400 mg/kg doses at both kill times. TRX-E-002-1 is therefore considered clastogenic in this system at the described concentrations in vivo [the equivalent 200/400 mg/kg dose in a […] is 16.2 mg/kg (600 mg/m^2)/32.4 mg/kg (1200 mg/m^2) in a 60-kg human].

The next series has as its system c-Jun N-terminal kinase. On the set-up: method as in PMID 27196760. The note with it: cited from earlier work.
In series [6] the test system is mouse lymphoma L5178Y cells. Description: In vitro mammalian cell mutation assay, thymidine kinase locus. On the procedure: Genotoxicity testing of TRX-E-002-1 was performed in an ICH-compliant test battery (see ICH Guideline S2A), comprising an in vitro bacterial reverse mutation test, an in vitro mammalian cell mutation assay and an in vivo rodent bone marrow micronucleus assay. The assays were performed in compliance with GLP regulations.
The in vitro mammalian cell mutation assay utilised the forward mutation system at the thymidine kinase locus of the mouse lymphoma L5178Y cells using a microtitre cloning technique. TRX-E-002-1 was tested in three experimental conditions: 3-h incubation at 37 °C with and without metabolic activation system (Aroclor-induced rat liver S9 mix), and a 24-h incubation without metabolic activation (i.e. continuous treatment).

Where [7] appears, read: female rats, 100 mg/kg i.p., plasma.
Setting [8] is: 10 μM SP600125, OCSC2 cells, Western blot.

Like-named read-outs stand apart in the source and are kept apart here.

As for `COc1cc(C2COc3c(ccc(O)c3C)C2c2ccc(O)cc2)cc(OC)c1O` (racemic) [TRX-E-002], the tumour growth entry in series [1] (100 mg/kg i.p. once daily in 20% SBECD for 13–14 days) was “significantly inhibited”. In series [2], the “AUC0−∞” value was 1633 ng·h/mL, the AUClast is 1630 ng·h/mL, the C max is 425 ng/mL and the T max is reported as 2 h. The “T ½” value in series [2] was determined as 2.6 h. Besides, in series [3] (setting [7]), the AUClast is reported as 29,396 ng h/mL and the C max stood at 8355 ng/mL. Moreover, the elimination half-life entry in series [3] (rats, interspecies comparison) is “about 2.5 h”. Besides, in series [4] (10 mg/kg i.p.), the “AUC0−∞” value amounted to 4395 ng·h/mL, the AUClast turned out to be 4390 ng·h/mL, the C max came to 626 ng/mL and the T max is 2.0 h. In addition, the “T ½” value in series [4] (10 mg/kg i.p.) amounted to 2.6 h. In series [4] (30 mg/kg i.p.), the “AUC0−∞” value is listed as 11,300 ng h/mL, the AUClast amounted to 8770 ng·h/mL, the T max came out at 2.0 h and the “T ½” value is given as 2.5 h. Also, in series [4] (100 mg/kg i.p.), the “AUC0−∞” value is 58,550 ng h/mL, the AUClast was 58,500 ng h/mL, the C max is on record as 6795 ng/mL and the T max is on record as 1.25 h. The “T ½” value in series [4] (100 mg/kg i.p.) is given as 2.2 h.
`Cc1c2ccccc2c(C)c2c1ccc1ccccc12` [Dimethyl-1,2 benzanthracene, reference compound]: in series [5], the “frequency of micronucleated PCEs” value is recorded as “statistically significant increase” and the “proportion of PCEs” value is “reduction”.
For the compound `Oc1c2ccccc2c2c3c(cccc13)N=N2` [SP600125], in the series on c-Jun N-terminal kinase (setting [8]), the “TRX-E-002-1-induced phosphorylation of c-Jun” value is listed as “inhibited” and the “phosphorylation of ERK” value is on record as “without affecting”. In addition, the “effect on anti-tumour activity of 0.245 μM TRX-E-002-1” value in the series with c-Jun N-terminal kinase (OCSC2 cells) is given as “blocked”.
For the compound `N.N.[Cl][Pt][Cl]` [cisplatin, reference compound], the “tumour growth during the 16-day treatment period” value in series [1] (TRX-E-002-1 100 mg/kg once daily, cisplatin 5 mg/kg once weekly, or both) is given as “significantly inhibited”. Moreover, the “tumour growth during the 5-week post-treatment period” value in series [1] (after 16-day treatment, TRX-E-002-1 100 mg/kg once daily, cisplatin 5 mg/kg once weekly, or both) is on record as “decreased”.
On to `O=P1(N(CCCl)CCCl)NCCCO1` (centres unmarked) [cyclophosphamide], for which, in series [6] (positive control, presence of S9), the mutant frequency result is given as “expected increases”.
`COS(C)(=O)=O` [methyl methanesulfonate]: the mutant frequency result in series [6] is on record as “expected increases”.

The record behind these values is PMC5306062, “Pharmacology and toxicology of the novel investigational agent Cantrixil (TRX-E-002-1)” (Cancer Chemotherapy and Pharmacology, 2016).
